Experimental data reported in the CheMixHub viscosity set.
Values joined by “and” are separate entries in the source; they are usually repeats but may differ in a detail not shown here. Identical values can stand only once.

Assay: xn = mol fraction of the nth substance listed

N#CCCCCC#N + CS(C)=O
303.15 K, 101.33 kPa
Settings	viscosity [mPa·s]
x1 = 0.1031	2.027
x1 = 0.2999	2.489
x1 = 0.4015	2.76
x1 = 0.5024	3.06
x1 = 0.5947	3.343
x1 = 0.6945	3.682
x1 = 0.8441	4.243

CC(O)C(=O)O (configuration not stated) + C[C@H](N)C(=O)O
101 kPa, x2 = 0.5
Settings	viscosity [mPa·s]
298.15 K	23710
318.15 K	3481

CC(O)C(=O)O (configuration not stated) + C[N+](C)(C)CCO.[Cl-]
viscosity
Settings	100 kPa	101 kPa
293.15 K, x2 = 0.1	92.67 mPa·s	–
293.15 K, x2 = 0.1667	107.5 mPa·s	–
293.15 K, x2 = 0.3333	229.3 mPa·s	–
293.15 K, x2 = 0.5	527 mPa·s	–
300.15 K, x2 = 0.1	52.02 mPa·s	–
300.15 K, x2 = 0.1667	59.99 mPa·s	–
300.15 K, x2 = 0.3333	127 mPa·s	–
300.15 K, x2 = 0.5	276.9 mPa·s	–
303.15 K, x2 = 0.5	–	1245 mPa·s
308.15 K, x2 = 0.5	–	877.3 mPa·s
313.15 K, x1 = 0.57	–	267.5 mPa·s
313.15 K, x1 = 0.9	–	103.5 mPa·s
313.15 K, x1 = 0.94	–	103.5 mPa·s
313.15 K, x2 = 0.1	31.27 mPa·s	–
313.15 K, x2 = 0.1667	35.62 mPa·s	–
313.15 K, x2 = 0.3333	79.44 mPa·s	–
313.15 K, x2 = 0.5	157.6 mPa·s	626.3 mPa·s
318.15 K, x2 = 0.5	–	452.1 mPa·s
323.15 K, x2 = 0.1	20.21 mPa·s and 20.21 mPa·s	–
323.15 K, x2 = 0.1667	23.07 mPa·s	–
323.15 K, x2 = 0.3333	51 mPa·s	–
323.15 K, x2 = 0.5	97.82 mPa·s	335.1 mPa·s

Clc1cccc2ccccc12 + Cc1cc(C)cc(C)c1
viscosity [mPa·s], 101.33 kPa
Settings	x1 = 0.0983	x1 = 0.2041	x1 = 0.2992	x1 = 0.3988	x1 = 0.4984	x1 = 0.6008	x1 = 0.6999	x1 = 0.8017	x1 = 0.9016
298.15 K	0.688	0.807	0.929	1.086	1.251	1.476	1.706	2.019	2.376
303.15 K	0.644	0.753	0.863	1.003	1.15	1.346	1.551	1.826	2.138
308.15 K	0.605	0.703	0.803	0.927	1.062	1.239	1.419	1.661	1.935

Clc1cccc2ccccc12 + Cc1ccc(C)cc1
viscosity [mPa·s], 101.33 kPa
Settings	x1 = 0.0966	x1 = 0.1961	x1 = 0.2964	x1 = 0.3991	x1 = 0.4981	x1 = 0.597	x1 = 0.7003	x1 = 0.7974	x1 = 0.8991
298.15 K	0.635	0.737	0.847	1.002	1.16	1.36	1.614	1.899	2.294
303.15 K	0.596	0.687	0.789	0.926	1.074	1.25	1.475	1.723	2.072
308.15 K	0.562	0.644	0.738	0.863	0.997	1.158	1.357	1.576	1.882
